Measured values as given in PubChem BioAssay (NCI).
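1) Cells in 96-well plates. 2) Compound, 48 h, 5 concentrations. 3) Linear interpolation between surrounding doses. 4) Unreached endpoint = highest concentration. At the GI50, growth is halved. TGI denotes the concentration required for complete inhibition of growth.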

Legend:
Test in all cases: NCI-60 cell line screen, 48 h; in the data active means GI50 below about 0.43 µM; inactive means the rest
HOP-92 NSCLC = system: HOP-92 NSCLC
M14 melanoma = system: M14 melanoma
TK-10 renal = system: TK-10 renal
SK-MEL-28 melanoma = system: SK-MEL-28 melanoma
NCI-H460 lung = system: NCI-H460 lung
PC-3 prostate = system: PC-3 prostate
SF-295 CNS = system: SF-295 CNS
BT-549 breast = system: BT-549 breast
K-562 leukemia = system: K-562 leukemia
CCRF-CEM leukemia = system: CCRF-CEM leukemia
MALME-3M melanoma = system: MALME-3M melanoma
LOX IMVI melanoma = system: LOX IMVI melanoma
OVCAR-4 ovarian = system: OVCAR-4 ovarian
NCI-H226 lung = system: NCI-H226 lung
SK-MEL-5 melanoma = system: SK-MEL-5 melanoma
SF-268 CNS = system: SF-268 CNS
KM12 colon = system: KM12 colon
786-0 renal = system: 786-0 renal
SNB-19 CNS = system: SNB-19 CNS
SK-OV-3 ovarian = system: SK-OV-3 ovarian
UACC-257 melanoma = system: UACC-257 melanoma
HT29 colon = system: HT29 colon
SR leukemia = system: SR leukemia
UACC-62 melanoma = system: UACC-62 melanoma
SK-MEL-2 melanoma = system: SK-MEL-2 melanoma
A549 NSCLC = system: A549 NSCLC
SW-620 colon = system: SW-620 colon
ACHN renal = system: ACHN renal
SF-539 CNS = system: SF-539 CNS
OVCAR-5 ovarian = system: OVCAR-5 ovarian
HCC-2998 colon = system: HCC-2998 colon
IGROV1 ovarian = system: IGROV1 ovarian
NCI/ADR-RES ovarian = system: NCI/ADR-RES ovarian
NCI-H522 lung = system: NCI-H522 lung
MDA-MB-231 breast = system: MDA-MB-231 breast
RPMI-8226 leukemia = system: RPMI-8226 leukemia
HOP-62 NSCLC = system: HOP-62 NSCLC
MCF7 breast = system: MCF7 breast
U251 CNS = system: U251 CNS
MOLT-4 leukemia = system: MOLT-4 leukemia
EKVX NSCLC = system: EKVX NSCLC
HCT-15 colon = system: HCT-15 colon
A498 renal = system: A498 renal
COLO 205 colon = system: COLO 205 colon
MDA-MB-435 = system: MDA-MB-435
RXF 393 renal = system: RXF 393 renal
NCI-H23 lung = system: NCI-H23 lung
DU-145 prostate = system: DU-145 prostate
HS 578T breast = system: HS 578T breast
OVCAR-8 ovarian = system: OVCAR-8 ovarian
SN12C renal = system: SN12C renal
T-47D breast = system: T-47D breast
HL-60(TB) leukemia = system: HL-60(TB) leukemia
UO-31 renal = system: UO-31 renal
HCT-116 colon = system: HCT-116 colon
CAKI-1 renal = system: CAKI-1 renal
OVCAR-3 ovarian = system: OVCAR-3 ovarian

COc1ccc2c(c1)OC13Oc4cc(OC)ccc4C=C1CCCC3=C2
> 100 µM: TGI (HOP-92 NSCLC) | TGI (M14 melanoma) | TGI (TK-10 renal) | TGI (SK-MEL-28 melanoma) | TGI (NCI-H460 lung) | TGI (PC-3 prostate) | TGI (SF-295 CNS) | TGI (BT-549 breast) | TGI (K-562 leukemia) | TGI (CCRF-CEM leukemia) | TGI (MALME-3M melanoma) | TGI (LOX IMVI melanoma) | TGI (OVCAR-4 ovarian) | TGI (NCI-H226 lung) | TGI (SK-MEL-5 melanoma) | TGI (SF-268 CNS) | TGI (KM12 colon) | TGI (786-0 renal) | TGI (SNB-19 CNS) | TGI (SK-OV-3 ovarian) | TGI (UACC-257 melanoma) | TGI (HT29 colon) | TGI (SR leukemia) | TGI (UACC-62 melanoma) | TGI (SK-MEL-2 melanoma) | TGI (A549 NSCLC) | TGI (SW-620 colon) | TGI (ACHN renal) | TGI (SF-539 CNS) | TGI (OVCAR-5 ovarian) | TGI (HCC-2998 colon) | TGI (IGROV1 ovarian) | TGI (NCI/ADR-RES ovarian) | TGI (NCI-H522 lung) | TGI (MDA-MB-231 breast) | TGI (RPMI-8226 leukemia) | TGI (HOP-62 NSCLC) | TGI (MCF7 breast) | TGI (U251 CNS) | TGI (MOLT-4 leukemia) | TGI (EKVX NSCLC) | TGI (HCT-15 colon) | TGI (A498 renal) | TGI (COLO 205 colon) | TGI (MDA-MB-435) | TGI (RXF 393 renal) | TGI (NCI-H23 lung) | TGI (DU-145 prostate) | TGI (HS 578T breast) | TGI (OVCAR-8 ovarian) | TGI (SN12C renal) | TGI (T-47D breast) | TGI (HL-60(TB) leukemia)
inactive: GI50 (HOP-92 NSCLC) 4.46 µM | GI50 (M14 melanoma) > 100 µM | GI50 (TK-10 renal) > 100 µM | GI50 (SK-MEL-28 melanoma) > 100 µM | GI50 (NCI-H460 lung) > 100 µM | GI50 (PC-3 prostate) > 100 µM | GI50 (SF-295 CNS) > 100 µM | GI50 (BT-549 breast) > 100 µM | GI50 (K-562 leukemia) > 100 µM | GI50 (CCRF-CEM leukemia) 5.88 µM | GI50 (MALME-3M melanoma) > 100 µM | GI50 (LOX IMVI melanoma) > 100 µM | GI50 (OVCAR-4 ovarian) > 100 µM | GI50 (NCI-H226 lung) > 100 µM | GI50 (SK-MEL-5 melanoma) 13.6 µM | GI50 (SF-268 CNS) > 100 µM | GI50 (KM12 colon) 18.7 µM | GI50 (786-0 renal) > 100 µM | GI50 (SNB-19 CNS) > 100 µM | GI50 (SK-OV-3 ovarian) > 100 µM | GI50 (UACC-257 melanoma) > 100 µM | GI50 (HT29 colon) > 100 µM | GI50 (SR leukemia) 4.89 µM | GI50 (UACC-62 melanoma) 4.5 µM | GI50 (SK-MEL-2 melanoma) > 100 µM | GI50 (A549 NSCLC) > 100 µM | GI50 (SW-620 colon) > 100 µM | GI50 (ACHN renal) > 100 µM | GI50 (SF-539 CNS) > 100 µM | GI50 (OVCAR-5 ovarian) > 100 µM | GI50 (HCC-2998 colon) > 100 µM | GI50 (IGROV1 ovarian) > 100 µM | GI50 (NCI/ADR-RES ovarian) > 100 µM | GI50 (NCI-H522 lung) > 100 µM | GI50 (MDA-MB-231 breast) > 100 µM | GI50 (RPMI-8226 leukemia) 6.12 µM | GI50 (HOP-62 NSCLC) > 100 µM | GI50 (MCF7 breast) 4.8 µM | GI50 (U251 CNS) > 100 µM | GI50 (MOLT-4 leukemia) 5.81 µM | GI50 (EKVX NSCLC) > 100 µM | GI50 (HCT-15 colon) > 100 µM | GI50 (A498 renal) > 100 µM | GI50 (COLO 205 colon) > 100 µM | GI50 (MDA-MB-435) 5.52 µM | GI50 (RXF 393 renal) > 100 µM | GI50 (NCI-H23 lung) > 100 µM | GI50 (DU-145 prostate) > 100 µM | GI50 (HS 578T breast) > 100 µM | GI50 (OVCAR-8 ovarian) > 100 µM | GI50 (SN12C renal) > 100 µM | GI50 (T-47D breast) 4.7 µM | GI50 (HL-60(TB) leukemia) > 100 µM

C=C(C)[C@H]1CC/C(C)=C/CCC(C)C(=O)CC/C(CO)=C\[C@@H]1O (stereo partly specified)
inactive: GI50 (HOP-92 NSCLC) 61.5 µM | GI50 (M14 melanoma) 87.7 µM | GI50 (TK-10 renal) 70.8 µM | GI50 (SK-MEL-28 melanoma) 7.9 µM | GI50 (NCI-H460 lung) 58.8 µM | GI50 (PC-3 prostate) 76.3 µM | GI50 (SF-295 CNS) 70 µM | GI50 (BT-549 breast) 88.1 µM | GI50 (UO-31 renal) > 100 µM | GI50 (K-562 leukemia) 65.6 µM | GI50 (CCRF-CEM leukemia) 44.6 µM | GI50 (MALME-3M melanoma) 55.3 µM | GI50 (LOX IMVI melanoma) 57.3 µM | GI50 (OVCAR-4 ovarian) 20.4 µM | GI50 (NCI-H226 lung) > 100 µM | GI50 (SK-MEL-5 melanoma) 40.7 µM | GI50 (SF-268 CNS) 88.9 µM | GI50 (KM12 colon) > 100 µM | GI50 (786-0 renal) > 100 µM | GI50 (SK-OV-3 ovarian) > 100 µM | GI50 (UACC-257 melanoma) > 100 µM | GI50 (HCT-116 colon) 97.4 µM | GI50 (SR leukemia) > 100 µM | GI50 (UACC-62 melanoma) 67.6 µM | GI50 (SK-MEL-2 melanoma) > 100 µM | GI50 (A549 NSCLC) > 100 µM | GI50 (SW-620 colon) > 100 µM | GI50 (ACHN renal) > 100 µM | GI50 (SF-539 CNS) > 100 µM | GI50 (OVCAR-5 ovarian) > 100 µM | GI50 (HCC-2998 colon) > 100 µM | GI50 (IGROV1 ovarian) > 100 µM | GI50 (NCI/ADR-RES ovarian) > 100 µM | GI50 (NCI-H522 lung) 86.3 µM | GI50 (MDA-MB-231 breast) > 100 µM | GI50 (RPMI-8226 leukemia) > 100 µM | GI50 (HOP-62 NSCLC) > 100 µM | GI50 (MCF7 breast) > 100 µM | GI50 (U251 CNS) 90.3 µM | GI50 (MOLT-4 leukemia) 56.6 µM | GI50 (CAKI-1 renal) 65.9 µM | GI50 (EKVX NSCLC) 55.5 µM | GI50 (HCT-15 colon) 5.47 µM | GI50 (A498 renal) 68.7 µM | GI50 (COLO 205 colon) > 100 µM | GI50 (MDA-MB-435) 49.2 µM | GI50 (RXF 393 renal) > 100 µM | GI50 (NCI-H23 lung) > 100 µM | GI50 (DU-145 prostate) 60.8 µM | GI50 (HS 578T breast) 41.9 µM | GI50 (OVCAR-8 ovarian) > 100 µM | GI50 (SN12C renal) > 100 µM | GI50 (OVCAR-3 ovarian) > 100 µM | GI50 (T-47D breast) > 100 µM | GI50 (HL-60(TB) leukemia) 45.4 µM
> 100 µM: TGI (HOP-92 NSCLC) | TGI (M14 melanoma) | TGI (TK-10 renal) | TGI (SK-MEL-28 melanoma) | TGI (NCI-H460 lung) | TGI (PC-3 prostate) | TGI (SF-295 CNS) | TGI (BT-549 breast) | TGI (UO-31 renal) | TGI (K-562 leukemia) | TGI (CCRF-CEM leukemia) | TGI (MALME-3M melanoma) | TGI (LOX IMVI melanoma) | TGI (OVCAR-4 ovarian) | TGI (NCI-H226 lung) | TGI (SK-MEL-5 melanoma) | TGI (SF-268 CNS) | TGI (KM12 colon) | TGI (786-0 renal) | TGI (SK-OV-3 ovarian) | TGI (UACC-257 melanoma) | TGI (HCT-116 colon) | TGI (SR leukemia) | TGI (UACC-62 melanoma) | TGI (SK-MEL-2 melanoma) | TGI (A549 NSCLC) | TGI (SW-620 colon) | TGI (ACHN renal) | TGI (SF-539 CNS) | TGI (OVCAR-5 ovarian) | TGI (HCC-2998 colon) | TGI (IGROV1 ovarian) | TGI (NCI/ADR-RES ovarian) | TGI (NCI-H522 lung) | TGI (MDA-MB-231 breast) | TGI (RPMI-8226 leukemia) | TGI (HOP-62 NSCLC) | TGI (MCF7 breast) | TGI (U251 CNS) | TGI (MOLT-4 leukemia) | TGI (CAKI-1 renal) | TGI (EKVX NSCLC) | TGI (HCT-15 colon) | TGI (A498 renal) | TGI (COLO 205 colon) | TGI (MDA-MB-435) | TGI (RXF 393 renal) | TGI (NCI-H23 lung) | TGI (DU-145 prostate) | TGI (HS 578T breast) | TGI (OVCAR-8 ovarian) | TGI (SN12C renal) | TGI (OVCAR-3 ovarian) | TGI (T-47D breast) | TGI (HL-60(TB) leukemia)
